In paper PMC10499915 (Scientific Reports, 2023):
Values after ≈ are worked out from the molar mass of the structure shown. “Also recorded” adds a separate entry of the source. Like-named read-outs stand apart in the source and are kept apart here. Square brackets hold non-standard residues; d marks the D form. Peptide text beside a SMILES is read from it. * marks the point of attachment. Lauroyl = CCCCCCCCCCCC(=O)*; Octanoyl = CCCCCCCC(=O)*; Aun = NCCCCCCCCCCC(=O)O

Columns and labels:
[1] = test system: chymotrypsin; experiment: chymotrypsin (Sigma–Aldrich), 1.25 µg of enzyme in 150 µl buffer; Tris·HCl 50 mM, pH 7.8; conditions: 37 °C, up to 24 h
[2] = Hydrophobicity by RP-HPLC retention time; assay type: physicochemical; conditions: for Retention time tR: used as measure of hydrophobicity, RP-HPLC, Phenomenex Luna C18 (100 Å, 5µ), linear gradient 5%B to 95%B over 30 min, A 0.1% TFA in 9:1 water:acetonitrile, B 0.1% TFA in 9:1 acetonitrile:water, 1 mL/min, peptide 0.5 mg/mL in MeOH, UV 215 and 280 nm; for Hydrophobicity ΔtR: ΔtR = tR(x)−tR(a), relative to compound a, RP-HPLC C18, 5%–95%B over 30 min
Procedure: Peptide hydrophobicity was calculated as difference in retention times between peptide analogues b–h and peptide a. Each peptide was dissolved in MeOH to a concentration of 0.5 mg/mL and then subjected to RP-HPLC on an analytical Phenomenex Luna C18 (100 Å, 5µ) column using 0.1% TFA in 9:1 water:acetonitrile as solvent A, and 0.1% TFA in 9:1 acetonitrile:water as solvent B. The peptides were eluted using a linear gradient as follows: 5%B to 95%B over 30 min. The flow rate was 1 mL/min and the absorbance was measured at 215 nm and 280 nm. The retention time was recorded for each peptide.

[3] = test system: E.coli ATCC 25922; assay type: cell-based, Escherichia coli; conditions: ATCC 25922, 18 h
Procedure: (§1) The bacterial strains used were Escherichia coli ATCC 25922, Staphylococcus aureus ATCC 25923, Klebsiella pneumoniae ATCC 700603, Acinetobacter baumannii ATCC 19606, Pseudomonas aeruginosa ATCC 27853 and Staphylococcus epidermidis ATCC 12228. The reference bacterial strains used were purchased from American Type Culture Collection (ATCC) (Manassas, Virginia, USA). They were grown overnight (o/n) at 37 °C in complete Müller-Hinton broth (MHB, Difco) medium with shaking (130 rpm). The day after, the overnight bacterial cultures were diluted in fresh MHB (300 μL o/n culture in 10 mL) and incubated at 37 °C with shaking (130 rpm) for approximately 2 h (mid-log phase) until reaching an optical density (OD) at 600 nm (OD600) ≈ 0.3.
(§2) Peptides diluted in MHB to a concentration of 128 μM were added to the first column of wells of a 96-well round-bottom microtiter plate (Sarstedt, Milan, Italy) and serially diluted (1:2) in a final volume of 50 μL MHB was added to the next wells. Then, a mid-log bacterial cultures (OD 600≈ 0.3) were diluted to 5 × 10^5 colony-forming units (CFU)/mL in MHB and 50 μL of this bacterial suspension was added to each well. In this way, the final bacterial concentration was reduced to 2.5 × 10^5 CFU/mL and the peptide concentration in the wells was also halved in a final volume of 100 μL (final bacteria load was 2.5 × 10^4 CFU/well). The same amount of untreated bacteria in MHB was used as a control for bacterial growth. […] MIC was determined by visual inspection at the end of incubation as the first clear well. Data are reported as moda of independent experiments repeated three times or four times in case of uncertain values.

[4] = test system: S.aureus ATCC 25923; assay type: cell-based, Staphylococcus aureus
Procedure: as §1, §2

[5] = test system: A.baumanni ATCC 19606; assay type: cell-based, Acinetobacter baumannii; conditions: ATCC 19606, 18 h
Procedure: as §1, §2

[6] = test system: K.pneumoniae ATCC 700603; assay type: cell-based, Klebsiella pneumoniae; conditions: ATCC 700603, 18 h
Procedure: as §1, §2

[7] = test system: P.aeruginosa ATCC 27853; assay type: cell-based, Pseudomonas aeruginosa; conditions: ATCC 27853, 18 h
Procedure: as §1, §2

[8] = test system: S.epidermidis ATCC 12228; assay type: cell-based, Staphylococcus epidermidis; conditions: ATCC 12228, 18 h
Procedure: as §1, §2

[9] = test system: ram red blood cells (RBCs); conditions: 4% v/v ram RBCs in PBS, 1 h, 37 °C, absorbance 540 nm, 100% = 1% Triton X-100; all concentrations tested; n = 3
Procedure: The lytic potential towards eukaryotic cell membranes was assessed by measuring the release of haemoglobin from commercial ram red blood cells (RBCs) (Microbiol s.r.l., Cagliari, Italy) after exposure to the peptides. First, erythrocytes were isolated by centrifugation, washed with PBS and then suspended at 8% (v/v) in PBS. Secondly, 100 µL erythrocytes suspension was added into each well of a 96-well microplate. Then, 100 µL peptide solution was added to each well at different concentrations (the final concentration of erythrocytes suspension was 4% v/v), and the plates were incubated for 1 h at 37 °C and centrifuged at 1000 g for 10 min. Finally, 100 µL aliquots of supernatant were transferred to fresh 96-well microplate, and the release of haemoglobin was monitored by measuring the absorbance at 540 nm with Tecan microplate reader (Tecan Trading AG, Switzerland). 0% and 100% haemolysis were determined in PBS and 1% Triton X-100, respectively.

[10] = test system: HaCaT cell line; conditions: 24 h
Procedure: Cytotoxicity was measured by the MTT assay on human immortalized epidermal keratinocyte HaCaT cell line (DKFZ, Eppelheim, Germany). The HaCaT cells were grown in high-glucose Dulbecco’s modified Eagle’s medium (DMEM) (Sigma-Aldrich, Milan, Italy). DMEM medium was supplemented with 10% foetal bovine serum (FBS; Sigma, Milan, Italy), 2 mM glutamine (Sigma, Milan, Italy), 100 U/mL penicillin (Sigma, Milan, Italy) and 100 µg/mL streptomycin (Sigma, Milan, Italy). The cells were maintained at 37 °C in the presence of 5% CO2 and in a humidified incubator.
Cells were counted in a Burker-Türk chamber to prepare a suspension of 2 × 10^5 cells/ml in DMEM High Glucose Complete Medium (Sigma-Aldrich, Milan, Italy). 100 μL of this suspension was added to the wells of a 96-well flat-bottom transparent microtiter plate (Euroclone, Milan, Italy) specially treated for tissue culture. The plate was incubated for 24 h at 37 °C and 5% CO2 to allow the cells in each well to reach a semiconfluent state. The following day, serial dilutions (1:2) of the peptides, starting with 64 μM, were prepared in DMEM medium, and 100 μL of these solutions were used to replace the medium in the plate with HaCaT cells. The same amount of untreated DMEM high-glucose medium was used as a cell growth control. DMEM high-glucose complete medium (100 μL) was used as a negative control to check the sterility of the medium. The plate was sealed with Parafilm to minimize evaporation and incubated at 37 °C and 5% CO2 for 20 h. Then, 25 μL MTT (Sigma-Aldrich, Milan, Italy) dissolved in phosphate-buffered saline (PBS) was added to each well to a final concentration of 1 mg/mL MTT, and the plate was incubated for 4 h in the dark at 37 °C and 5% CO2.
At the end of incubation, 100 μL 10% (w/v) Igepal (Sigma-Aldrich, Milan, Italy) in 10 mM HCl was added to each well, and the plate was incubated overnight in the dark at 37 °C and 5% CO2. The absorbance of MTT at 570 nm was measured using a Nanoquant Infinite-M200Pro plate reader (Tecan, Männedorf, Switzerland). Student’s t-test was performed for all samples.

[11] = 4h and 24 h incubation, different concentrations
[12] = test system: E. coli, A. baumannii, K. pneumoniae, P. aeruginosa, and S. epidermidis strains; assay type: cell-based; conditions: 18 h
Procedure: as §1, §2

Q: With Ac-KRLKKIGKVLKWIAKIVGSI-NH2 as the compound, how does the cleaved bond [1] read?
A: Its cleaved bond is “Leu21-Lys22, first_seen, within a 30-min incubation; also recorded: Leu14-Lys15, after longer incubation times; also recorded: Trp23-Ile24, after longer incubation times”.

Q: With “Ac-KRLKKIGKVLKWIAKIVGSI[Aun]-NH2 (SMILES CC[C@H](C)[C@H](NC(=O)[C@H](CO)NC(=O)CNC(=O)[C@@H](NC(=O)[C@@H](NC(=O)[C@H](CCCCN)NC(=O)[C@H](C)NC(=O)[C@@H](NC(=O)[C@H](Cc1c[nH]c2ccccc12)NC(=O)[C@H](CCCCN)NC(=O)[C@H](CC(C)C)NC(=O)[C@@H](NC(=O)[C@H](CCCCN)NC(=O)CNC(=O)[C@@H](NC(=O)[C@H](CCCCN)NC(=O)[C@H](CCCCN)NC(=O)[C@H](CC(C)C)NC(=O)[C@H](CCCNC(=N)N)NC(=O)[C@H](CCCCN)NC(C)=O)[C@@H](C)CC)C(C)C)[C@@H](C)CC)[C@@H](C)CC)C(C)C)C(=O)NCCCCCCCCCCC(N)=O)” as the compound, how does the cleaved bond [1] read?
A: The cleaved bond was “Leu21-Lys22, first_seen, within a 30-min incubation; also recorded: Trp23-Ile24, first_seen, within a 30-min incubation; also recorded: Leu14-Lys15, after longer incubation times”.

Q: With Pal-KRLKKIGKVLKWIAKIVGSI-NH2 as the compound, how does the cleaved bond [1] read?
A: Its cleaved bond is “Leu14-Lys15, after longer incubation times; also recorded: Leu21-Lys22, after longer incubation times; also recorded: Trp23-Ile24, after longer incubation times”.

Q: Which “Retention time tR” value [2] does the source give for `CCCCCCCCCCCC(=O)N[C@@H](CCCCN)C(=O)N[C@@H](CCCNC(=N)N)C(=O)N[C@@H](CC(C)C)C(=O)N[C@@H](CCCCN)C(=O)N[C@@H](CCCCN)C(=O)N[C@H](C(=O)NCC(=O)N[C@@H](CCCCN)C(=O)N[C@H](C(=O)N[C@@H](CC(C)C)C(=O)N[C@@H](CCCCN)C(=O)N[C@@H](Cc1c[nH]c2ccccc12)C(=O)N[C@H](C(=O)N[C@@H](C)C(=O)N[C@@H](CCCCN)C(=O)N[C@H](C(=O)N[C@H](C(=O)NCC(=O)N[C@@H](CO)C(=O)N[C@H](C(N)=O)[C@@H](C)CC)C(C)C)[C@@H](C)CC)[C@@H](C)CC)C(C)C)[C@@H](C)CC` [d] (Lauroyl-KRLKKIGKVLKWIAKIVGSI-NH2) here?
A: Its value is 22.8 min.

Q: And the “Hydrophobicity ΔtR” value [2]?
A: Its value is 9.6.

Q: What about the MIC [3] of the same compound?
A: The MIC was greater than 32 µM.

Q: What about the MIC ([4]; ATCC 25923, 18 h) of the same compound?
A: The MIC was 32 µM (≈ 78.7 µg/mL).

Q: What about the MIC [5] of the same compound?
A: The MIC was 16 µM (≈ 39.4 µg/mL).

Q: And the MIC [6]?
A: The MIC was 32 µM (≈ 78.7 µg/mL).

Q: And the MIC [7]?
A: The MIC was greater than 32 µM.

Q: What about the MIC [8] of the same compound?
A: The MIC was 32 µM (≈ 78.7 µg/mL).

Q: What about the “membranolytic (haemolytic) effect on erythrocytes” value [9] of the same compound?
A: Its value is “significant lytic effect”.

Q: What about the “HC50 (cytotoxicity on HaCaT cells)” value [10] of the same compound?
A: The value was less than 32 µM.

Q: What about the “solubility in Müller-Hinton broth” value [11] of the same compound?
A: The value was “low solubility”.

Q: Which results are given for Ac-KRLKKIGKVLKWIPPIVGSI-NH2 [a]?
A: Retention time tR [2]: 13.2 min; Hydrophobicity ΔtR [2]: 0; MIC [3]: 2 µM; MIC ([4]; S.aureus ATCC 25923, Mueller–Hinton broth, 18 h, 37 °C, 2.5 × 10^5 CFU/mL, visual, mode of three independent tests): 64 µM; MIC [5]: 1 µM; MIC [6]: 1 µM; MIC [7]: 4 µM; MIC [8]: 2 µM; MIC, span over all tested bacterial strains except S. aureus [12]: 1 to 4 µM

Q: With Lau-KRLKKIGKVLKWIAKIVGSI-NH2 as the compound, how does the cleaved bond [1] read?
A: Its cleaved bond is “Trp23-Ile24, after longer incubation times; also recorded: Leu21-Lys22, first_seen, within a 30-min incubation; also recorded: Leu14-Lys15, after longer incubation times”.

Q: With Oct-KRLKKIGKVLKWIAKIVGSI-NH2 as the compound, how does the cleaved bond [1] read?
A: The cleaved bond was “Leu21-Lys22, first_seen, within a 30-min incubation; also recorded: Trp23-Ile24, first_seen, within a 30-min incubation; also recorded: Leu14-Lys15, within a 30-min incubation”.

Q: Which cleaved bond [1] does the source give for Ac-KRLKKIGKVUKWI-NH2 here?
A: Its cleaved bond is “Leu14-Lys15, within a 30-min incubation; also recorded: Trp23-Ile24, after longer incubation times”.

Q: With `CC[C@H](C)[C@H](NC(=O)[C@H](CO)NC(=O)CNC(=O)[C@@H](NC(=O)[C@@H](NC(=O)[C@H](CCCCN)NC(=O)[C@H](C)NC(=O)[C@@H](NC(=O)[C@H](Cc1c[nH]c2ccccc12)NC(=O)[C@H](CCCCN)NC(=O)[C@H](CC(C)C)NC(=O)[C@@H](NC(=O)[C@H](CCCCN)NC(=O)CNC(=O)[C@@H](NC(=O)[C@H](CCCCN)NC(=O)[C@H](CCCCN)NC(=O)[C@H](CC(C)C)NC(=O)[C@H](CCCNC(=N)N)NC(=O)[C@H](CCCCN)NC(C)=O)[C@@H](C)CC)C(C)C)[C@@H](C)CC)[C@@H](C)CC)C(C)C)C(=O)NCCCCCCCCCCC(N)=O` [f] (Ac-KRLKKIGKVLKWIAKIVGSI[Aun]-NH2) as the compound, how does the MIC [3] read?
A: Its MIC is 8 µM (≈ 20 µg/mL).

Q: And the MIC ([4]; ATCC 25923, 18 h)?
A: Its MIC is 8 µM (≈ 20 µg/mL).

Q: What about the MIC [5] of the same compound?
A: Its MIC is 4 µM (≈ 10 µg/mL).

Q: What about the MIC [6] of the same compound?
A: The MIC was 16 µM (≈ 40.1 µg/mL).

Q: What about the MIC [7] of the same compound?
A: The MIC was 16 µM (≈ 40.1 µg/mL).

Q: And the MIC [8]?
A: Its MIC is 8 µM (≈ 20 µg/mL).

Q: And the “membranolytic (haemolytic) effect on erythrocytes” value [9]?
A: Its value is “significant lytic effect”.

Q: What about the “HC50 (cytotoxicity on HaCaT cells)” value [10] of the same compound?
A: The value was less than 32 µM.

Q: Which cleaved bond [1] does the source give for Ac-KRLKKIGKVLKWI-NH2 here?
A: The cleaved bond was “Leu21-Lys22, first_seen, within a 30-min incubation”.

Q: What does the source list for `CCCCCCCC(=O)N[C@@H](CCCCN)C(=O)N[C@@H](CCCNC(=N)N)C(=O)N[C@@H](CC(C)C)C(=O)N[C@@H](CCCCN)C(=O)N[C@@H](CCCCN)C(=O)N[C@H](C(=O)NCC(=O)N[C@@H](CCCCN)C(=O)N[C@H](C(=O)N[C@@H](CC(C)C)C(=O)N[C@@H](CCCCN)C(=O)N[C@@H](Cc1c[nH]c2ccccc12)C(=O)N[C@H](C(=O)N[C@@H](C)C(=O)N[C@@H](CCCCN)C(=O)N[C@H](C(=O)N[C@H](C(=O)NCC(=O)N[C@@H](CO)C(=O)N[C@H](C(N)=O)[C@@H](C)CC)C(C)C)[C@@H](C)CC)[C@@H](C)CC)C(C)C)[C@@H](C)CC` [c] (Octanoyl-KRLKKIGKVLKWIAKIVGSI-NH2)?
A: Retention time tR [2]: 22.3 min; Hydrophobicity ΔtR [2]: 9.1; MIC [3]: 16 µM (≈ 38.5 µg/mL); MIC ([4]; ATCC 25923, 18 h): 16 µM (≈ 38.5 µg/mL); MIC [5]: 8 µM (≈ 19.2 µg/mL); MIC [6]: 16 µM (≈ 38.5 µg/mL); MIC [7]: 32 µM (≈ 76.9 µg/mL); MIC [8]: 8 µM (≈ 19.2 µg/mL); membranolytic (haemolytic) effect on erythrocytes [9]: significant lytic effect; HC50 (cytotoxicity on HaCaT cells) [10]: < 32 µM; solubility in Müller-Hinton broth [11]: low solubility

Q: For Ac-KRLKKIGKVLKWIPPIVGSI-NH2, which cleaved bond [1] is on record?
A: Its cleaved bond is “Leu21-Lys22, first_seen, within a 30-min incubation”.
